Reference: paper PMC7072302 (Biomolecules, 2020)

Molecular target: T1, tyrosinase (Agaricus bisporus, UniProt C7FF04)
T1 construct: purchased Sigma-Aldrich T3824
Test: Tyrosinase enzymatic assay (L-tyrosine substrate, absorbance at 475 nm)
Type: biochemical
Settings: for Ki: Dixon plot, read-out: Ki (inhibition constant); for inhibition at 100 µM: compound concentration 100 μM, L-tyrosine substrate, triplicate, mean ± SD, read-out: Inhibition Rate (%) at 100 μM; for IC50: concentrations 3.1 to 100 μM, mean ± SD (n = 3)

T1 sequence (C7FF04 1-392 limits assumed): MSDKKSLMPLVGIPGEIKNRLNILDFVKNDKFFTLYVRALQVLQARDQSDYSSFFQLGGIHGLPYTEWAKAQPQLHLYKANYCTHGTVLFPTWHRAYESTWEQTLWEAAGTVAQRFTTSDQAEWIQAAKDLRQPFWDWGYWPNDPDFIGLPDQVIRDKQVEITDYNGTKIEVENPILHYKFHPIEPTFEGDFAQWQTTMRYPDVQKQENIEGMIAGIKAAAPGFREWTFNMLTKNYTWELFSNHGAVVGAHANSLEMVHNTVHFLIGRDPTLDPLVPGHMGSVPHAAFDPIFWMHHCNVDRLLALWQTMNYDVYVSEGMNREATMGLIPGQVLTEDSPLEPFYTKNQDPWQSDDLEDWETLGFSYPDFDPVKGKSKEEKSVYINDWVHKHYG

| Ki [µM] | inhibition at 100 µM [%] | IC50 [µM] | Structure (SMILES) |
| --- | --- | --- | --- |
| 1.6 | > 80 | 7.4 ± 0.4 | COc1cc(C(=O)OCCCCN=C(N)N)cc(OC)c1OC [Compound 1, 10-methoxy-leonurine] |
| 11.4 | > 80 | 12.4 ± 0.8 | COc1cc(C(=O)OCCCCNC(=N)N)cc(OC)c1O [Compound 2, leonurine] |
| – | 11.6 ± 0.1 | – | COc1cc(C(=O)O)cc(OC)c1O [Compound 3, syringic acid] |
| – | 1.8 ± 5.9 | – | O=c1c(O[C@@H]2O[C@H](CO)[C@@H](O)[C@H](O)[C@H]2O)c(-c2ccc(O)c(O)c2)oc2cc(O)cc(O)c12 [Compound 4, isoquercitrin] |
